Measurements from patent US8906925B2, “Pyrido[4,3-B]indoles containing rigid moieties” (Medivation Technologies, Inc., priority 2008, dated 2014).
Where “and” joins values, the source holds several entries; their conditions need not be identical. Identical values can stand only once. Like-named read-outs stand apart in the source and are kept apart here.

Tests used:
[1] = molecular target: histamine receptor H1 (Homo sapiens, UniProt P35367); assay: Histamine H1 radioligand binding ([3H]Pyrilamine); conditions: for inhibition at 1 µM: read-out: Histamine Binding (1 μM) H1, percent inhibition of specific binding, 1 μM
Chain of histamine receptor H1 (P35367 whole entry): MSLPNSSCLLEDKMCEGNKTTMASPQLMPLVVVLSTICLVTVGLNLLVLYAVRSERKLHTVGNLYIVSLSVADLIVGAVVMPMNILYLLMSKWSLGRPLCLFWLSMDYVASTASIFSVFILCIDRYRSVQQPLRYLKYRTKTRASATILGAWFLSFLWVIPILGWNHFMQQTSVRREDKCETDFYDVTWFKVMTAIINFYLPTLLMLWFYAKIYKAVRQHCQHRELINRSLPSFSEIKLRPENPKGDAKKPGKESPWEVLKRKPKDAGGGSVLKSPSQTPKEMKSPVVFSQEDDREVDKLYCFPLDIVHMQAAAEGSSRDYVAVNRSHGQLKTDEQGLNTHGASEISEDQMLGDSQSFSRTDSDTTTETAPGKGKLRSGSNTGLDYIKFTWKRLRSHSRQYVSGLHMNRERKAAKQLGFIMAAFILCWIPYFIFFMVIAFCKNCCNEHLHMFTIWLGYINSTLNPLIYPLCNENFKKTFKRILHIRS
How it was run: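 Values are percent inhibition of specific [3H]pyrilamine (1.2 nM) binding with compounds at ≤1 μM (1% DMSO vehicle); 180 min incubation at 25 °C, pH 7.4 Tris buffer, on CHO-expressed human H1 receptor; 1 μM pyrilamine defined nonspecific binding, bound ligand counted after filtration.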

[2] = molecular target: T1, human recombinant histamine H2 receptor (Homo sapiens, UniProt P25021); assay: Histamine H2 radioligand binding ([125I]Aminopotentidine); conditions: for inhibition at 1 µM: read-out: Histamine Binding (1 μM) H2, percent inhibition of specific binding, 1 μM
T1 construct: expressed in transfected cells; host or cells: Chinese hamster ovary (CHO) K1 cells
T1 sequence (P25021 whole entry): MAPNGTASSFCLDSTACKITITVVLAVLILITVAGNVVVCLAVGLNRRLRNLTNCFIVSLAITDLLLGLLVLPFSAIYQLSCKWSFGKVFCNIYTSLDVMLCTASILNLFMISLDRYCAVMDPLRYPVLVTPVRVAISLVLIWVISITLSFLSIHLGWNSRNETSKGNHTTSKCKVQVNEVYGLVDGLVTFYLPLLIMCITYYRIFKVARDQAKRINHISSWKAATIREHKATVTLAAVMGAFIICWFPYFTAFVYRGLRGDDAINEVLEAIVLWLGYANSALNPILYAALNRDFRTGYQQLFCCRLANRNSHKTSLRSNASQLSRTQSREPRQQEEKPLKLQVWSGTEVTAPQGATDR
How it was run: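 Receptor source: human recombinant H2 in CHO-K1 cells, assayed in 50 mM phosphate pH 7.4. Competition against 0.1 nM [125I]aminopotentidine, 120 min, 25 °C; 3 μM tiotidine sets nonspecific binding, filter-bound counts give specific binding.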

[3] = molecular target: T2, human recombinant adrenergic α1D receptor (Homo sapiens, UniProt P25100); assay: Adrenergic α1D radioligand binding ([3H]Prozosin); conditions: compound at 1 μM; for Inhibition of ligand binding, Adrenergic α1D: 1 µM
T2 construct: expressed in transfected cells; host or cells: human embryonic kidney (HEK-293) cells
T2 sequence (P25100 1-572): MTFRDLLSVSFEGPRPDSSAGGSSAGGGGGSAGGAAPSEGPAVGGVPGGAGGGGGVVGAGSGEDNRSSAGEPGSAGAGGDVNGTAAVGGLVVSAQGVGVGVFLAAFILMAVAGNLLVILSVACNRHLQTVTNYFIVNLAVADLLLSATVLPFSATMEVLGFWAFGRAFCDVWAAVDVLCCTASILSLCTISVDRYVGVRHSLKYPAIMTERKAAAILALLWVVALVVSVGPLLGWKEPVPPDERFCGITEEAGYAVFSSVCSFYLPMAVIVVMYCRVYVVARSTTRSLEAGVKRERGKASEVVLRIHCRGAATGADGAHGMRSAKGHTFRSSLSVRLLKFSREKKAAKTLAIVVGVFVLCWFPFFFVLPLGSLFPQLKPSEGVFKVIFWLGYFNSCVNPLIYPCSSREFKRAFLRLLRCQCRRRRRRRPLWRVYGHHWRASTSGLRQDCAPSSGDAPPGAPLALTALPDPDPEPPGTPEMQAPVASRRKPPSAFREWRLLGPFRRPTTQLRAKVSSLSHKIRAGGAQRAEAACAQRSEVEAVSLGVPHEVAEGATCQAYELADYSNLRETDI
Method: Compounds of invention were incubated with 0.6 nM [^3H]Prozosin for 60 min. at 25° C. Non-specific binding was estimated in the presence of 10 μM phentolamine. Receptor proteins were filtered and washed, the filters were then counted to determine [^3H]Prozosin specifically bound. Compounds were screened at 1 μM or lower, using 1% DMSO as vehicle. Biochemical assay results are presented as the percent inhibition of specific binding in Table 9.

[4] = molecular target: T3, human recombinant serotonin (5-Hydroxytryptamine) 5-HT2C receptor (Homo sapiens, UniProt P28335); assay: Serotonin 5-HT2C radioligand binding ([3H]Mesulergine); conditions: for inhibition at 1 µM / inhibition at 0.1 µM: read-out: Inhibition of ligand binding, Serotonin 5-HT2C (percent inhibition of specific binding); for inhibition at 0.1 µM: compound at 0.1 μM
T3 construct: expressed in transfected cells; host or cells: Chinese hamster ovary (CHO-K1) cells
T3 sequence (P28335 33-458): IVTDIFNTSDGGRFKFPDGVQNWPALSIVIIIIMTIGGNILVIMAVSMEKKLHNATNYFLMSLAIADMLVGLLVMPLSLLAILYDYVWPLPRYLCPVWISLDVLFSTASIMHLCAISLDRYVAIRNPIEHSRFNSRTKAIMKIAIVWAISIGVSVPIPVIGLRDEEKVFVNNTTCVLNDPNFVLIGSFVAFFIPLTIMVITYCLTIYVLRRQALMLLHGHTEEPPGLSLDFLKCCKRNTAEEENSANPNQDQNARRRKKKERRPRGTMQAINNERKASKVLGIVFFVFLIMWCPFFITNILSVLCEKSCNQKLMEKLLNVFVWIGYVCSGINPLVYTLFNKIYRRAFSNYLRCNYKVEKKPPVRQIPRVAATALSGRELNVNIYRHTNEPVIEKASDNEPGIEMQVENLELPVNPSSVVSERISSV
How it was run: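 Compounds tested at 1 μM or lower (1% DMSO vehicle) for displacement of 1 nM [3H]Mesulergine over 60 min at 25° C. Specific binding determined by filtration counting, with 1 μM Mianserin defining non-specific binding; values are percent inhibition.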

[5] = percent inhibition of specific binding, read-out: Inhibition of ligand binding, Adrenergic α1D
[6] = read-out: Inhibition of ligand binding, Adrenergic α1D (percent inhibition of specific binding)
[7] = percent inhibition of specific binding

SMILES | inhibition at 1 µM [1] [%] | inhibition at 1 µM [2] [%] | inhibition at 1 µM [3, 5] [%] | inhibition at 1 µM ([4]; compound at 1 μM) [%] | inhibition at 0.1 µM [4] [%] | inhibition at 1 µM [3, 6] [%] | Histamine Binding (1 μM) H1, percent inhibition of specific binding [1] | Inhibition of ligand binding, Adrenergic α1D [3, 7] [%] | Histamine Binding (1 μM) H2, percent inhibition of specific binding ([2]; 1 μM) [%] | Inhibition of ligand binding, Serotonin 5-HT2C (percent inhibition of specific binding) ([4]; compound at 1 μM, 1 µM) [%]
COc1ccc(/C(C)=C/n2c3c(c4cc(Cl)ccc42)CN(C)CC3)cc1 [Compound 92, (E)-8-chloro-2,3,4,5-tetrahydro-5-(2-(4-methoxyphenyl)prop-1-enyl)-2-methyl-1H-pyrido[4,3-b]indole] | 44 | 99 | 99 | 91 |  |  |  |  |  | 
Cc1ccc2c(c1)c1c(n2CC(C)(O)c2cccnc2)CCN(C)C1 (centres unmarked) [Compound 60, 1-(1,2,3,4-tetrahydro-2,8-dimethylpyrido[4,3-b]indol-5-yl)-2-(pyridin-3-yl)propan-2-ol] | 52 | 40 | 33 | 86 |  |  |  |  |  | 
Cc1ccc2c(c1)c1c(n2CC(O)(c2ccc(F)cc2)C2CCCCC2)CCN(C)C1 (centres unmarked) [Compound 171, 1-cyclohexyl-2-(2,8-dimethyl-3,4-dihydro-1H-pyrido[4,3-b]indol-5(2H)-yl)-1-(4-fluorophenyl)ethanol] | 13 | 85 | 49 | 98 | 51 |  |  |  |  | 
Cc1ccc2c(c1)c1c(n2CC(C)(O)c2ccncc2)CCN(C)C1 (centres unmarked) [Compound 62, 1-(1,2,3,4-tetrahydro-2,8-dimethylpyrido[4,3-b]indol-5-yl)-2-(pyridin-4-yl)propan-2-ol] | 38 | 43 | 82 | 89 |  |  |  |  |  | 
CN1CCc2c(c3cc(Cl)ccc3n2C#Cc2ccc(Cl)cc2)C1 [Compound No. 480, 8-chloro-5-((4-chlorophenyl)ethynyl)-2-methyl-2,3,4,5-tetrahydro-1H-pyrido[4,3-b]indole] | 40 | 93 |  | 102 |  | 68 |  |  |  | 
CC(=Cn1c2c(c3cc(Cl)ccc31)CN(C)CC2)c1ccc(Cl)cc1Cl (stereo in doubt) [Compound 111, (Z)-8-chloro-5-(2-(2,4-dichlorophenyl)prop-1-enyl)-2,3,4,5-tetrahydro-2-methyl-1H-pyrido[4,3-b]indole] |  | 91 |  | 100 | 95 |  | 73% and 74% | 47 |  | 
Cc1ccc(/C=C/Cn2c3c(c4cc(Cl)ccc42)CN(C)CC3)cn1 [Compound 125, 8-chloro-2,3,4,5-tetrahydro-2-methyl-5-((E)-3-(6-methylpyridin-3-yl)allyl)-1H-pyrido[4,3-b]indole] | 96 | 48 | 51 | 77 |  |  |  |  |  | 
C/C(=C\n1c2c(c3cc(Cl)ccc31)CN(C)CC2)c1ccc(Cl)cc1Cl [Compound 210, (E)-8-chloro-5-(2-(2,4-dichlorophenyl)prop-1-enyl)-2-methyl-2,3,4,5-tetrahydro-1H-pyrido[4,3-b]indole] |  |  |  |  |  |  | 53% | 17 | 96 | 99
CN1CCc2c(c3cc(Cl)ccc3n2/C=C(\c2ccc(F)cc2)C2CC2)C1 [Compound 203, (Z)-8-chloro-5-(2-cyclopropyl-2-(4-fluorophenyl)vinyl)-2-methyl-2,3,4,5-tetrahydro-1H-pyrido[4,3-b]indole] | 64 | 99 | 89 | 98 | 101 |  | 72% |  |  | 
Cc1ccc2c(c1)c1c(n2C#Cc2ccc(F)cc2)CCN(C)C1 [Compound No. 478, 5-((4-fluorophenyl)ethynyl)-2,8-dimethyl-2,3,4,5-tetrahydro-1H-pyrido[4,3-b]indole] | 28 | 94 |  | 110 |  | 92 |  |  |  | 
Cc1ccc2c(c1)c1c(n2C/C(=C/C(=O)O)c2ccc(F)cc2)CCN(C)C1 [Compound No. 352, (E)-4-(2,8-dimethyl-3,4-dihydro-1H-pyrido[4,3-b]indol-5(2H)-yl)-3-(4-fluorophenyl)but-2-enoic acid] | 4 | 15 |  | 93 |  | 11 |  |  |  | 
Cc1ccc(C(C)(O)Cn2c3c(c4cc(Cl)ccc42)CN(C)CC3)cn1 (centres unmarked) [Compound 47, 1-(8-chloro-1,2,3,4-tetrahydro-2-methylpyrido[4,3-b]indol-5-yl)-2-(6-methylpyridin-3-yl)propan-2-ol] | 33 | 48 | 82 | 81 |  |  |  |  |  | 
Cc1ccc2c(c1)c1c(n2/C=C(\CC(=O)O)c2ccc(F)cc2)CCN(C)C1 [Compound 209, (E)-4-(2,8-dimethyl-3,4-dihydro-1H-pyrido[4,3-b]indol-5(2H)-yl)-3-(4-fluorophenyl)but-3-enoic acid] | 9 | 20 | 21 | 95 |  |  |  |  |  | 
COc1ccc(C#Cn2c3c(c4cc(Cl)ccc42)CN(C)CC3)cc1F [Compound No. 477, 8-chloro-5-((3-fluoro-4-methoxyphenyl)ethynyl)-2-methyl-2,3,4,5-tetrahydro-1H-pyrido[4,3-b]indole] | 17 | 97 |  | 99 |  | 79 |  |  |  | 
CN1CCc2c(c3cc(Cl)ccc3n2C/C=C/c2ccc(F)cc2)C1 [Compound 126, 5-(4-fluorocinnamyl)-8-chloro-2,3,4,5-tetrahydro-2-methyl-1H-pyrido[4,3-b]indole] | 103 | 85 | 50 | 84 |  |  |  |  |  | 
Cc1ccc2c(c1)c1c(n2CC(O)c2ccc(C)nc2)CCN(C)C1 (centres unmarked) [Compound 48, 2-(2,8-dimethyl-3,4-dihydro-1H-pyrido[4,3-b]indol-5(2H)-yl)-1-(6-methylpyridin-3-yl)ethanol] | 93 | 47 | 45 | 67 |  |  |  |  |  | 
C/C(=C/n1c2c(c3cc(Cl)ccc31)CN(C)CC2)c1ccccc1F [Compound 212, (Z)-8-chloro-5-(2-(2-fluorophenyl)prop-1-enyl)-2-methyl-2,3,4,5-tetrahydro-1H-pyrido[4,3-b]indole] | 70 | 84 | 78 | 104 |  |  |  |  |  | 
CN1CCc2c(c3cc(Cl)ccc3n2CC(O)(c2ccc(F)cc2)C2CC2)C1 (centres unmarked) [Compound 82, 2-(8-chloro-1,2,3,4-tetrahydro-2-methylpyrido[4,3-b]indol-5-yl)-1-cyclopropyl-1-(4-fluorophenyl)ethanol] |  | 99 | 62 | 105 | 94 |  | 35% and 64% |  |  | 
